Patent publication US20230346827A1 (priority 2020, published 2023)

What was measured:
blood coagulation (APTT) = experiment: Activated partial thromboplastin time (APTT) in blood of ALS patients after s.c. LMW-DS 1 mg/kg (Example 5); format: in vivo, human
Procedure: This was a single-centre, open single-arm study where the safety, tolerability and efficacy of subcutaneous (s.c.) administered LMW-DS was evaluated in patients with ALS. There were 10 planned visits to the clinic: 1 screening visit divided in 2 parts (Visit 1a and Visit 1b), 5 IMP administration visits (Visit 2 to Visit 6) and 3 follow-up visits (Visit 7 to Visit 9). Each individual patient’s study participation was planned to be approximately 4 months, including the screening and follow-up visits.
The active pharmaceutical ingredient of the IMP was a low molecular weight dextran sulfate (LMW-DS), (ILB®, Tikomed AB, Viken, Sweden, WO 2016/076780). LMW-DS was prepared as a solution for s.c. injection and consisted of 20 mg/mL LMW-DS and 9 mg/mL NaCl. Each glass vial contained 10 mL. The dose administered depended on the patient’s body weight at Visit 2, prior to the first LMW-DS administration. LMW-DS was injected s.c. on alternating sides of the abdomen, thigh or the buttock (in that order of priority). Five injections of 1 mg/kg, with 1 week dosing interval, were administered. Changes in activated partial thromboplastin time (APTT) were recorded from blood samples taken at each visit.

human PBMC = experiment: Stimulated IL-6 release from human PBMC (ELISA); format: cell-based; details: 24 h
Procedure: Peripheral blood mononuclear cells (PBMC) were isolated from healthy donors through Ficoll-Paque PLUS (GE Healthcare; 11778538) density centrifugation. PBMC were cultured at 2×10^5 cells/well in the absence (unstimulated PBS vehicle controls) or presence of stimulation (LPS, peptidoglycan, pokeweed mitogen, PHA-L, CpG + IL-15, or Cytostim) in the absence (vehicle) or presence of LMW-DS (Tikomed AB, Viken, Sweden, WO 2016/076780) at three concentrations; 60 µg/ml, 200 µg/ml and 600 µg/ml for 24 hours at 37° C., 5% CO2. Following centrifugation, cell culture supernatants were removed and stored at -20° C. awaiting analysis for IL-6 by ELISA. Levels of IL-6 were quantified in the supernatant by ELISA (R&D systems; DY206) according to manufacturer’s instructions.

[1] = system: HUVEC and M1 macrophages + Zymosan (TLR2 ligand); experiment: BioMAP Mphg system; format: cell-based, human; details: annotated relative to vehicle controls
From the text: Cell types and stimuli used in each system are as follows: 3C system [HUVEC + (IL-1β, TNFα and IFNy)], 4H system [HUVEC + (IL-4 and histamine)], LPS system [PBMC and HUVEC + LPS (TLR4 ligand)], SAg system [PBMC and HUVEC + TCR ligands], BT system [CD19+ B cells and PBMC + (α-IgM and TCR ligands)], BF4T system [bronchial epithelial cells and HDFn + (TNFα and IL-4)], BE3C system [bronchial epithelial cells + (IL-1β, TNFα and IFNy)], CASM3C system [coronary artery smooth muscle cells + (IL-1 β, TNFα and IFNy)], HDF3CGF system [HDFn + (IL-1β, TNFα, IFNy, EGF, bFGF and PDGF-BB)], KF3CT system [keratinocytes and HDFn + (IL-1β, TNFα, IFNy and TGFβ)], MyoF system [differentiated lung myofibroblasts + (TNFα and TGFβ)] and Mphg system [HUVEC and M1 macrophages + Zymosan (TLR2 ligand)].
Systems are derived from either single cell types or co-culture systems. Adherent cell types are cultured in 96 or 384-well plates until confluence, followed by the addition of PBMC (SAg and LPS systems). […] Soluble factors from supernatants are quantified using either HTRF® detection, bead-based multiplex immunoassay or capture ELISA. Overt adverse effects of test agents on cell proliferation and viability (cytotoxicity) are detected by sulforhodamine B (SRB) staining, for adherent cells, and alamarBlue® reduction for cells in suspension. […]

sodium salt of dextran sulfate [LMW-DS]
APTT relative change from baseline (blood coagulation (APTT); 2 hours post-dosing): +33.5% | APTT relative change from baseline (blood coagulation (APTT); 2.5 hours post-dosing): +26.5% | time at which APTT values returned to pre-dose levels (blood coagulation (APTT); post dosing): 6 h | IL-6 release (human PBMC; CpG 0.2 µM + IL-15, LMW-DS 60-600 µg/ml): not generally impacted | IL-6 release (human PBMC; Cytostim 10 µl/ml, LMW-DS 60-600 µg/ml): not generally impacted | IL-6 release (human PBMC; LPS 0.01 ng/ml, LMW-DS 60, 200, 600 µg/ml): concentration dependent and statistically significant reduction | IL-6 release (human PBMC; PHA-L 1.0 µg/ml, LMW-DS 60-600 µg/ml): inhibited significantly in a concentration-dependent manner | IL-6 release (human PBMC; higher concentration of CpG (1.0 µM) + IL-15, LMW-DS 60-600 µg/ml): no general impact | IL-6 release (human PBMC; higher concentration of Cytostim (30 µl/ml), LMW-DS 60-600 µg/ml): no general impact | IL-6 release (human PBMC; peptidoglycan 30 ng/ml, LMW-DS 60-600 µg/ml): little evidence | IL-6 release (human PBMC; pokeweed mitogen 1.0 µg/ml, LMW-DS 60-600 µg/ml): not impacted generally | Increased biomarker activity [1]: IL-8, CD69
